Molecular target: IKZF2 (Homo sapiens (Human), UniProt Q96SW2+Q9UKS7)
Experiment: IKZF2 HiBiT Assay (Jurkat-IKZF2-HiBiT cell line)
Assay type: cell-based
Conditions: Jurkat-IKZF2-HiBiT cells, 24 hours; for DC50: read-out: HiBit assay degradation analysis DC50; for Dmax: read-out: HiBit assay degradation analysis Dmax
Method in brief: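 Jurkat cells carrying HiBiT-tagged IKZF2 were exposed to serially diluted compound for 24 h at 37 °C. Remaining IKZF2 was measured by Nano-Glo HiBiT lytic luminescence after 10-20 min at room temperature. Signal was normalized to DMSO, and IC50 came from a four-parameter variable-slope fit.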

Chain of IKZF2 (Q9UKS7 whole entry): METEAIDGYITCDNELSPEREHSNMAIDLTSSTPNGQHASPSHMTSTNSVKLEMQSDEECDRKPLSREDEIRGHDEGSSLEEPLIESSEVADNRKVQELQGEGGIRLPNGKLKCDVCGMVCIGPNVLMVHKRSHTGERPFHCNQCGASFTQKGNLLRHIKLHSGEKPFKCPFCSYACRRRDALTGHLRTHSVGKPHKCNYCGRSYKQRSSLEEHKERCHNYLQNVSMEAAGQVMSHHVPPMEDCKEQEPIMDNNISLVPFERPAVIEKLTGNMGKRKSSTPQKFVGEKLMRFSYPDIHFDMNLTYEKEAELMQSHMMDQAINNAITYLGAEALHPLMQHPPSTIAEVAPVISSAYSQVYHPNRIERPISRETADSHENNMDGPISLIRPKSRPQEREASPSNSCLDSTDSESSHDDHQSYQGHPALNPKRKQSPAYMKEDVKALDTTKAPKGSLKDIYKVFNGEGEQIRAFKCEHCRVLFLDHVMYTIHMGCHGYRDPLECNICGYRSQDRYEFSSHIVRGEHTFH
Chain of IKZF2 (Q96SW2 whole entry): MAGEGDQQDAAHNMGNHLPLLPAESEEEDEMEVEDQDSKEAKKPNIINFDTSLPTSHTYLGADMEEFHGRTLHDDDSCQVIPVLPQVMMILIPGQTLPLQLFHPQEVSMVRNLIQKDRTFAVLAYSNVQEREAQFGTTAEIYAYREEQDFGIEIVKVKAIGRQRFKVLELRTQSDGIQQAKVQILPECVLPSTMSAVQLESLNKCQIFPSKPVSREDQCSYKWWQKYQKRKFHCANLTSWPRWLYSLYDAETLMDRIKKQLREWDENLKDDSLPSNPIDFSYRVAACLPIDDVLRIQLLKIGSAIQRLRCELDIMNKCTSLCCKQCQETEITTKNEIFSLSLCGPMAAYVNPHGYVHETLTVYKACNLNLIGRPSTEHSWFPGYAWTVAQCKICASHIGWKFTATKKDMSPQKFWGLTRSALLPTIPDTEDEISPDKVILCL
Chain of IKZF2 (Q16531 whole entry partner): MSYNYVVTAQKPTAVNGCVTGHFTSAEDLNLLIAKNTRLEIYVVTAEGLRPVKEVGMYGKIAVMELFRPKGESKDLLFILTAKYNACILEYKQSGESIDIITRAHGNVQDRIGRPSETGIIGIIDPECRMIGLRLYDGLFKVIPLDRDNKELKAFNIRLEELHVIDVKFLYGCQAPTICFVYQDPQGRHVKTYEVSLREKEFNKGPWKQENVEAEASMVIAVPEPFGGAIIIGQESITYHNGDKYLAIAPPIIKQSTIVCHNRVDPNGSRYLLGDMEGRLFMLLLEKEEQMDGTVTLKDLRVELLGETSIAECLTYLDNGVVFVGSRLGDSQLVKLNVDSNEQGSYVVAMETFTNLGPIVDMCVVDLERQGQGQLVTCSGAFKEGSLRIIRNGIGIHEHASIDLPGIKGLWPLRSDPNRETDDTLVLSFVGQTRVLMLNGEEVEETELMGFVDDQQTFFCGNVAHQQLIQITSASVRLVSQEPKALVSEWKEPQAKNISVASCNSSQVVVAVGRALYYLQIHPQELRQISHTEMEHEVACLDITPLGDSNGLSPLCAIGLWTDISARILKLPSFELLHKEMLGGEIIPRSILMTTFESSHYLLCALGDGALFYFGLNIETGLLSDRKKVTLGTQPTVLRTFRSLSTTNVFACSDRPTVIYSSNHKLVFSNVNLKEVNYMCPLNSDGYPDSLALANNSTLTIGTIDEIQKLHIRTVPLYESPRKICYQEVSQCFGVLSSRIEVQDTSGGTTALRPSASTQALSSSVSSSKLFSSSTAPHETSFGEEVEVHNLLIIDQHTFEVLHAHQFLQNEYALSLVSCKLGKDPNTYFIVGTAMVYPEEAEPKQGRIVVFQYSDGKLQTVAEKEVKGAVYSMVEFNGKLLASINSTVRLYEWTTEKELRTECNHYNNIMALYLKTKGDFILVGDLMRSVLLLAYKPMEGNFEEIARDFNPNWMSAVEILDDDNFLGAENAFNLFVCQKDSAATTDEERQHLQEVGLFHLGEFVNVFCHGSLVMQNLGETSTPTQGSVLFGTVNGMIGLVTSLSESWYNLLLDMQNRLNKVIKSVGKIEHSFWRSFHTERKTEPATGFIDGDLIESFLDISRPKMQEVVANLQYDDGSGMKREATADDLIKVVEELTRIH

Row | SMILES | DC50 | Dmax
1 | O=C1CCC(N2Cc3c(ccc4c3OCC43CCN(CC4CCCCC4)CC3)C2=O)C(=O)N1 (centres unmarked) [Compound A7, 3-(1′-(cyclohexylmethyl)-6-oxo-6,8-dihydro-2H,7H-spiro[furo[2,3-e]isoindoline-3,4′-piperidin]-7-yl)piperidine-2,6-dione] | > 500 nM | < 40%
2 | O=C1CC[C@H](N2Cc3c(ccc4c3OCC43CCN(C4Cc5ccccc5C4)CC3)C2=O)C(=O)N1 [Compound A275, (S)-3-(1′-(2,3-dihydro-1H-inden-2-yl)-6-oxo-6,8-dihydro-2H,7H-spiro[furo[2,3-e]isoindole-3,4′-piperidin]-7-yl)piperidine-2,6-dione] | > 500 nM | 40 to 60%
3 | O=C1CCC(N2Cc3c(ccc4c3OCC43CCN(Cc4ncnn4-c4ccccc4)CC3)C2=O)C(=O)N1 (centres unmarked) [Compound A254, 3-(6-oxo-1′-((1-phenyl-1H-1,2,4-triazol-5-yl)methyl)-6,8-dihydro-2H,7H-spiro[furo[2,3-e]isoindole-3,4′-piperidin]-7-yl)piperidine-2,6-dione] | > 500 nM | < 40%
4 | O=C1CCC(N2Cc3c(ccc4c3OCC43CCN(Cc4cccc(OC(F)F)c4)CC3)C2=O)C(=O)N1 (centres unmarked) [Compound A90, 3-(1′-(3-(difluoromethoxy)benzyl)-6-oxo-6,8-dihydro-2H,7H-spiro[furo[2,3-e]isoindole-3,4′-piperidin]-7-yl)piperidine-2,6-dione] | > 500 nM | < 40%
5 | O=C1CCC(N2Cc3c(ccc4c3OCC43CCN(Cc4ccc(F)c5ccccc45)CC3)C2=O)C(=O)N1 (centres unmarked) [Compound A36, 3-(1′-((4-fluoronaphthalen-1-yl)methyl)-6-oxo-6,8-dihydro-2H,7H-spiro[furo[2,3-e]isoindole-3,4′-piperidin]-7-yl)piperidine-2,6-dione] | 50 to 200 nM | 60 to 80%
6 | O=C1CCC(N2Cc3c(ccc4c3OCC43CCN(Cc4ccc(F)cc4)CC3)C2=O)C(=O)N1 (centres unmarked) [Compound A192, 3-(1′-(4-fluorobenzyl)-6-oxo-6,8-dihydro-2H,7H-spiro[furo[2,3-e]isoindole-3,4′-piperidin]-7-yl)piperidine-2,6-dione] | > 500 nM | 40 to 60%
7 | O=C1CCC(N2Cc3c(ccc4c3OCC43CCN(Cc4ccc(OCc5ccccc5)cn4)CC3)C2=O)C(=O)N1 (centres unmarked) [Compound A338, 3-(1′-((5-(benzyloxy)pyridin-2-yl)methyl)-6-oxo-6,8-dihydro-2H,7H-spiro[furo[2,3-e]isoindole-3,4′-piperidin]-7-yl)piperidine-2,6-dione] | > 500 nM | < 40%
8 | O=C1CCC(N2Cc3c(ccc4c3OCC43CCN(Cc4ncn(-c5ccccc5)n4)CC3)C2=O)C(=O)N1 (centres unmarked) [Compound A335, 3-(6-oxo-1′-((1-phenyl-1H-1,2,4-triazol-3-yl)methyl)-6,8-dihydro-2H,7H-spiro[furo[2,3-e]isoindole-3,4′-piperidin]-7-yl)piperidine-2,6-dione] | > 500 nM | < 40%
9 | COc1ccc(C(=O)Nc2cccc(CN3CCC4(CC3)COc3c4ccc4c3CN(C3CCC(=O)NC3=O)C4=O)c2)cc1 (centres unmarked) [Compound A177, N-(3-((7-(2,6-dioxopiperidin-3-yl)-6-oxo-7,8-dihydro-2H,6H-spiro[furo[2,3-e]isoindole-3,4′-piperidin]-1′-yl)methyl)phenyl)-4-methoxybenzamide] | < 50 nM | > 80%
10 | O=C1CCC(N2Cc3c(ccc4c3OCC43CCN(Cc4cccc(Cn5ccnc5)c4)CC3)C2=O)C(=O)N1 (centres unmarked) [Compound A139, 3-(1′-(3-((1H-imidazol-1-yl)methyl)benzyl)-6-oxo-6,8-dihydro-2H,7H-spiro[furo[2,3-e]isoindole-3,4′-piperidin]-7-yl)piperidine-2,6-dione] | 200 to 500 nM | 60 to 80%
11 | O=C1CC[C@H](N2Cc3c(ccc4c3OCC43CCN(Cc4ccc5c(c4)NC(=O)CC5)CC3)C2=O)C(=O)N1 [Compound A303, 3-(6-oxo-1′-((2-oxo-1,2,3,4-tetrahydroquinolin-7-yl)methyl)-6,8-dihydro-2H,7H-spiro[furo[2,3-e]isoindole-3,4′-piperidin]-7-yl)piperidine-2,6-dione] | 200 to 500 nM | 60 to 80%
12 | O=C1CC[C@H](N2Cc3c(ccc4c3OCC43CCN(Cc4cnn(S(=O)(=O)c5ccc(F)c(F)c5)c4)CC3)C2=O)C(=O)N1 [Compound A353, (S)-3-(1′-((1-((3,4-difluorophenyl)sulfonyl)-1H-pyrazol-4-yl)methyl)-6-oxo-6,8-dihydro-2H,7H-spiro[furo[2,3-e]isoindole-3,4′-piperidin]-7-yl)piperidine-2,6-dione] | – | 40 to 60%
13 | Cn1cc2cc(CN3CCC4(CC3)COc3c4ccc4c3CN(C3CCC(=O)NC3=O)C4=O)ccc2n1 (centres unmarked) [Compound A68, 3-(1′-((2-methyl-2H-indazol-5-yl)methyl)-6-oxo-6,8-dihydro-2H,7H-spiro[furo[2,3-e]isoindole-3,4′-piperidin]-7-yl)piperidine-2,6-dione] | > 500 nM | 40 to 60%
14 | O=C1CCC(N2Cc3c(ccc4c3OCCC43CCN(CC4CCCCC4)CC3)C2=O)C(=O)N1 (centres unmarked) [Compound A14, 3-(1-(cyclohexylmethyl)-7′-oxo-2′,3′,7′,9′-tetrahydro-8′H-spiro[piperidine-4,4′-pyrano[2,3-e]isoindol]-8′-yl)piperidine-2,6-dione] | > 500 nM | < 40%
15 | O=C1CC[C@H](N2Cc3c(ccc4c3OCC43CCN(Cc4cnn(S(=O)(=O)c5cccc(Cl)c5)c4)CC3)C2=O)C(=O)N1 [Compound A350, (S)-3-(1′-((1-((3-chlorophenyl)sulfonyl)-1H-pyrazol-4-yl)methyl)-6-oxo-6,8-dihydro-2H,7H-spiro[furo[2,3-e]isoindole-3,4′-piperidin]-7-yl)piperidine-2,6-dione] | – | 60 to 80%
16 | O=C1CCC(N2Cc3c(ccc4c3OCC43CCN(Cc4cnn(-c5ccccc5Cl)c4)CC3)C2=O)C(=O)N1 (centres unmarked) [Compound A331, 3-(1′-((1-(2-chlorophenyl)-1H-pyrazol-4-yl)methyl)-6-oxo-6,8-dihydro-2H,7H-spiro[furo[2,3-e]isoindole-3,4′-piperidin]-7-yl) piperidine-2,6-dione] | > 500 nM | < 40%
17 | O=C1CC[C@H](N2Cc3c(ccc4c3OCC43CCN(Cc4ccc5cn(C6COC6)nc5c4)CC3)C2=O)C(=O)N1 [Compound A285, (S)-3-(1′-((2-(oxetan-3-yl)-2H-indazol-6-yl)methyl)-6-oxo-6,8-dihydro-2H,7H-spiro[furo[2,3-e]isoindole-3,4′-piperidin]-7-yl)piperidine-2,6-dione] | < 50 nM | 60 to 80%
18 | O=C1CCC(N2Cc3c(ccc4c3OCC43CCN(CC4C5CC6CC(C5)CC4C6)CC3)C2=O)C(=O)N1 (centres unmarked) [Compound A23, 3-(1′-(((1r,3r,5r,7r)-adamantan-2-yl)methyl)-6-oxo-6,8-dihydro-2H,7H-spiro[furo[2,3-e]isoindole-3,4′-piperidin]-7-yl)piperidine-2,6-dione] | > 500 nM | < 40%
19 | CC1(Cn2cc(CN3CCC4(CC3)COc3c4ccc4c3CN(C3CCC(=O)NC3=O)C4=O)cn2)COC1 (centres unmarked) [Compound A320, 3-(1′-((1-((3-methyloxetan-3-yl)methyl)-1H-pyrazol-4-yl)methyl)-6-oxo-6,8-dihydro-2H,7H-spiro[furo[2,3-e]isoindole-3,4′-piperidin]-7-yl)piperidine-2,6-dione] | > 500 nM | 40 to 60%
20 | Cn1ccc2c(CN3CCC4(CC3)COc3c4ccc4c3CN(C3CCC(=O)NC3=O)C4=O)cccc21 (centres unmarked) [Compound A109, 3-(1′-((1-methyl-1H-indol-4-yl)methyl)-6-oxo-6,8-dihydro-2H,7H-spiro[furo[2,3-e]isoindole-3,4′-piperidin]-7-yl)piperidine-2,6-dione] | < 50 nM | 60 to 80%
21 | O=C1CCC(N2Cc3c(ccc4c3OCC43CCN(Cc4ccsc4)CC3)C2=O)C(=O)N1 (centres unmarked) [Compound A183, 3-(6-oxo-1′-(thiophen-3-ylmethyl)-6,8-dihydro-2H,7H-spiro[furo[2,3-e]isoindole-3,4′-piperidin]-7-yl)piperidine-2,6-dione] | 200 to 500 nM | 40 to 60%
22 | O=C1CCC(N2Cc3c(ccc4c3OCC43CCN(Cc4nn(CC5COCCO5)c5ccccc45)CC3)C2=O)C(=O)N1 (centres unmarked) [Compound A328, 3-(1′-((1-((1,4-dioxan-2-yl)methyl)-1H-indazol-3-yl)methyl)-6-oxo-6,8-dihydro-2H,7H-spiro[furo[2,3-e]isoindole-3,4′-piperidin]-7-yl)piperidine-2,6-dione] | < 50 nM | 60 to 80%
23 | O=C1CCC(N2Cc3c(ccc4c3OCC43CCN(Cc4cnc5c(c4)CCCC5)CC3)C2=O)C(=O)N1 (centres unmarked) [Compound A325, 3-(6-oxo-1′-((5,6,7,8-tetrahydroquinolin-3-yl)methyl)-6,8-dihydro-2H,7H-spiro[furo [2,3-e]isoindole-3,4′-piperidin]-7-yl)piperidine-2,6-dione] | > 500 nM | < 40%
24 | O=C1CCC(N2Cc3c(ccc4c3OCC43CCN(Cc4cnn(CC5CCOCC5)c4)CC3)C2=O)C(=O)N1 (centres unmarked) [Compound A233, 3-(6-oxo-1′-((1-((tetrahydro-2H-pyran-4-yl)methyl)-1H-pyrazol-4-yl)methyl)-6,8-dihydro-2H,7H-spiro[furo[2,3-e]isoindole-3,4′-piperidin]-7-yl)piperidine-2,6-dione] | 200 to 500 nM | 60 to 80%
25 | O=C1CCC(N2Cc3c(ccc4c3OCC43CCN(Cc4cccc(-c5ccccn5)c4)CC3)C2=O)C(=O)N1 (centres unmarked) [Compound A103, 3-(6-oxo-1′-(3-(pyridin-2-yl)benzyl)-6,8-dihydro-2H,7H-spiro[furo[2,3-e]isoindole-3,4′-piperidin]-7-yl)piperidine-2,6-dione] | 200 to 500 nM | 40 to 60%
26 | N#CCc1ccc(CN2CCC3(CC2)COc2c3ccc3c2CN(C2CCC(=O)NC2=O)C3=O)cc1 (centres unmarked) [Compound A196, 2-(4-((7-(2,6-dioxopiperidin-3-yl)-6-oxo-7,8-dihydro-2H,6H-spiro[furo[2,3-e]isoindole-3,4′-piperidin]-1′-yl)methyl)phenyl)acetonitrile] | 50 to 200 nM | 60 to 80%

Source: patent publication US20250215012A1, “IKZF2 DEGRADERS AND USES THEREOF” (REGENTS OF THE UNIVERSITY OF MICHIGAN, priority 2022, published 2025)
